Experimental data: patent US20250041264A1, “METHOD FOR TREATING DIABETES BY USING ANTRODIA CAMPHORATA COMPOUND” (Lantyng Biotechnology Corp., priority 2023, published 2025)
Entries after “also recorded” stand apart in the source; their conditions may differ.

Legend:
Type 2 Diabetic Mice [1] = test: Oral glucose tolerance test (OGTT), final week (16th week), high-fat-diet type 2 diabetic mice; type: in vivo, mice C57BL/6JNarl; details: for average blood sugar at 120 minutes (OGTT): n=6, 120 minutes
Procedure: This experiment uses four-week-old male mice C57BL/6JNarl from National Laboratory Animal Center (Taipei, Taiwan), and they were bred with 12 hours of light/dark cycle under the environment of 23° C.±2° C. Mice were adapted to feed water and food arbitrarily every week, and after one week, they were fed in groups from the commercial feed 1320 (containing 11% fat) purchased from EJOY2 CORP. (New Taipei City, Taiwan) and D12451 (containing 45% high-fat feed) purchased from […] CO., LTD. (Taichung, Taiwan), induced for 12 weeks. During the experiment, the body weight of the mice and the fasting blood sugar value were measured every week and their changes were recorded. The mean±3SD of fasting blood sugar in mice was calculated. If the fasting blood sugar value exceeds the mean±3SD of the normal diet group, tube feeding administration would be started for 4 weeks, and blood sugar tolerance would be tested by tail vein blood collection in the last week of the experiment. […] Referring to FIGS. 1-2, they show the test results of oral glucose tolerance test (OGTT), respectively. Group A (NFD), Group B (NFD+5), Group C (NFD+20), Group D (HFD), Group E (HFD+5), Group F (HFD+10), Group G (HFD+20), Group H (Glibenclamide). NFD refers to normal fat diet, HFD refers to high fat diet, and Glibenclamide is an oral hypoglycemic drug that belongs to type 2 (non-insulin dependent) diabetic patients.

Type 2 Diabetic Mice [2] = test: ALT and AST biochemical analysis in blood (liver function); type: in vivo; details: later stage of treatment (4 weeks), Hitachi 7080 blood biochemical analyzer
Procedure: Mice were adapted to feed water and food arbitrarily every week, and after one week, they were fed in groups from the commercial feed 1320 (containing 11% fat) purchased from EJOY2 CORP. (New Taipei City, Taiwan) and D12451 (containing 45% high-fat feed) purchased from MEDGENE CO., LTD. (Taichung, Taiwan), induced for 12 weeks.
On the last day of the experiment, all animals (except for unplanned deaths) were fasted for 20 hours at the National Laboratory Animal Center and euthanized with pure carbon dioxide, followed by necropsy, organ weight (liver) and gross examination, including evaluation of liver and pancreas. Most lesions of animals were recorded at the time of final sacrifice, including scheduled euthanasia and unscheduled deaths. […]

Type 2 Diabetic Mice [3] = test: Low-density lipoprotein (LDL) detection; type: in vivo, mice C57BL/6JNarl; details: HFD+5 group (SY1 5 mg/kg) compared with Western medicine group and HFD+10

## COc1ccc(Cl)cc1C(=O)NCCc1ccc(S(=O)(=O)NC(=O)NC2CCCCC2)cc1 [Glibenclamide, reference compound]
Type 2 Diabetic Mice [1]; HFD, Glibenclamide 5 mg/kg, after 4 weeks of drug treatment
  fasting blood sugar when no sugar water was fed (OGTT, 16th week): higher fasting blood sugar increase than any other group
Type 2 Diabetic Mice [1]; HFD, Glibenclamide 5 mg/kg, after 4 weeks of drug treatment, compared with SY1
  effect on lowering blood sugar in the later stage of treatment: worse than that of SY1
Type 2 Diabetic Mice [2]
  liver function index (AST, ALT in blood): increased and reached a significant difference

## COc1cc(C)c(OC)c2c1OCO2 [SY1, 4,7-dimethoxy-5-methyl-1,3-benzodioxole]
Type 2 Diabetic Mice [1]; HFD+5 group (SY1 5 mg/kg) versus HFD+10, HFD+20 and Glibenclamide groups, 5 mg/kg
  hypoglycemic effect compared with other groups (OGTT): equivalent to that of the HFD+10 group; also recorded: more obvious than the high-dose HFD+20 and hypoglycemic drug Glibenclamide group
Type 2 Diabetic Mice [1]; HFD+5 group (high fat diet, SY1 5 mg/kg, tube feeding 4 weeks)
  average blood sugar at 120 minutes (OGTT): 155.83
Type 2 Diabetic Mice [1]; HFD+5 low-dose group (SY1 5 mg/kg)
  effect on lowering blood sugar 30 minutes after feeding sugar water (OGTT): obvious effect on lowering blood sugar
Type 2 Diabetic Mice [1]; HFD+10 group (high fat diet, SY1 10 mg/kg, tube feeding 4 weeks)
  average blood sugar at 120 minutes (OGTT): 155.33
Type 2 Diabetic Mice [1]; HFD+10 middle-dose group (SY1 10 mg/kg)
  effect on lowering blood sugar 30 minutes after feeding sugar water (OGTT): obvious effect on lowering blood sugar
Type 2 Diabetic Mice [2]
  liver function index (AST, ALT in blood): this phenomenon was not seen
Type 2 Diabetic Mice [3]
  effect on lowering LDL: not much different from that of the Western medicine group; also recorded: better than HFD+10
